Here are results for 3 compounds from paper PMC12469827, “Targeting G6PD with Benzimidazole and Thiazole Derivatives Suppresses SIRT 2 and VEGF Expression and Induces Cytotoxicity in Glioma Cells” (International Journal of Molecular Sciences, 2025).

Assay [1] concerns the target T1, Glucose-6-Phosphate Dehydrogenase (G6PD) (Homo sapiens, UniProt P11413). Kind of assay: residual activity of purified recombinant enzyme (NADPH at […] nm) after […] h incubation; supported by CD and intrinsic fluorescence. It is filed as biochemical.
Assay [2] has as its target T1, Glucose-6-Phosphate Dehydrogenase (G6PD). Kind of assay: residual activity of purified recombinant enzyme (NADPH at […] nm) after […] h incubation; supported by intrinsic fluorescence (minimal CD change). It is filed as biochemical.

The structures appear in SMILES notation.

T1 sequence (P11413 2-515): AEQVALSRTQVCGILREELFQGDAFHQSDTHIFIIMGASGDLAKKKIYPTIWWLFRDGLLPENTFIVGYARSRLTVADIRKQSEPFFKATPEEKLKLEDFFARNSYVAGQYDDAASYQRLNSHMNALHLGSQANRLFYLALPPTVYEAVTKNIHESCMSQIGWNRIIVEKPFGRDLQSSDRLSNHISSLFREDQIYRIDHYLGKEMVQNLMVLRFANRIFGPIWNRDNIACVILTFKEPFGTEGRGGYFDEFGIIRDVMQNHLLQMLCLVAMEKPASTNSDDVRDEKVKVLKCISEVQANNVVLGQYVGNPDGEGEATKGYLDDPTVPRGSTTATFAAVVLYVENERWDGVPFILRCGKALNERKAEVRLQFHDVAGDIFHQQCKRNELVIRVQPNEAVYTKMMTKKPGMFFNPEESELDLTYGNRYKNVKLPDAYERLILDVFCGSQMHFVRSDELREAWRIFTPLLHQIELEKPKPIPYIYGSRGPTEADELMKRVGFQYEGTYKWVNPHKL

For the compound `O=[N+]([O-])c1ccc2nc([S+]([O-])Cc3ccccn3)[nH]c2c1` (stereo not drawn) [BZM-7], the IC50 in assay [1] (read-out: IC50) was 40 µM.

With `Cc1cnc(C[S+]([O-])c2nc3cc([N+](=O)[O-])ccc3[nH]2)c(C)c1OCC(F)(F)F` (stereo not drawn) [BZM-9], the IC50 in assay [2] came to 42 µM.

Turning to `O=C(Nc1ccc(Cl)cc1)Nc1ncc([N+](=O)[O-])s1` [CNZ-3], the IC50 in assay [1] is 121 µM.
